In this assay the target is T1, recombinant autotaxin (Homo sapiens, UniProt Q13822).
T1 construct: made in house; host or cells: Hi5 insect cells (baculovirus)
The assay is described as follows: Autotaxin test (enzyme test), Amplex Red fluorescence with LPC substrate. It counts as biochemical. The note with it: autotaxin inhibition (enzyme test); for remaining activity at 10 µM: 10 μM compound, read-out: % Control at 10 μM. The procedure, abridged:
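Purified recombinant autotaxin (baculovirus Hi5-expressed) pre-incubated with compound 30 min at 22° C, then LPC (final 75 μM) added and reacted 90 min at 37° C in Tris pH 8 buffer with CaCl2. Choline released was coupled via alkaline phosphatase, choline oxidase and peroxidase to Amplex Red; resorufin fluorescence read in kinetic mode (ex 485/em 612 nm).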

One may read the IC50 as the point on the concentration scale where inhibition reaches its midpoint.

Bounds are passed on as bounds.

`O=C1Nc2ccc(-c3ccc(Cl)cc3)cc2C(=O)N2CCN(C(=O)C3(c4ccccc4)CC3)CC12` (stereo not shown) [Compound A49, 7-(4-Chlorophenyl)-2-(1-phenylcyclopropane-carbonyl)-1,3,4,11a-tetrahydro-2H,10H-2,4a,10-triazadibenzo[a,d]cycloheptene-5,11-dione]: the IC50 is more than 1000 nM. In the case of `Nc1nc(C(=O)N2CCN3C(=O)c4cc(-c5ccc(Cl)cc5)ccc4NC(=O)C3C2)cs1` (stereo not shown) [Compound A50, 2-(2-Aminothiazole-4-carbonyl)-7-(4-chlorophenyl)-1,3,4,11a-tetrahydro-2H,10H-2,4a,10-triaza-dibenzo[a,d]cycloheptene-5,11-dione], the remaining activity at 10 µM stood at 80%. As to `O=C1Nc2ccc(-c3ccc(Cl)cc3)cc2C(=O)N2CCN(C(=O)c3ccccn3)CC12` (stereo not shown) [Compound A51, 7-(4-Chlorophenyl)-2-(pyridine-2-carbonyl)-1,3,4,11a-tetrahydro-2H,10H-2,4a,10-triaza-dibenzo[a,d]cycloheptene-5,11-dione], the remaining activity at 10 µM came to 37% and the IC50 was more than 1000 nM.

`CC(C)(C)[C@@H](N)C(=O)N1CCN2C(=O)c3cc(-c4ccc(Cl)cc4)ccc3NC(=O)C2C1` (stereo partly drawn) [Compound A53, 2-((R)-2-Amino-3,3-dimethylbutyryl)-7-(4-chloro-phenyl)-1,3,4,11a-tetrahydro-2H,10H-2,4a,10-triazadibenzo[a,d]cycloheptene-5,11-dione]: the IC50 was more than 1000 nM. Consider `CC(C)(C)[C@H](O)C(=O)N1CCN2C(=O)c3cc(-c4ccc(Cl)cc4)ccc3NC(=O)[C@@H]2C1` [Compound A54, (S)-7-(4-Chlorophenyl)-2-((S)-2-hydroxy-3,3-di-methyl-1-oxobutyl)-1,3,4,11a-tetrahydro-2H,10H-2,4a,10-triazadibenzo[a,d]cycloheptene-5,11-dione], for which the remaining activity at 10 µM was 84%. Regarding `CC(C)(C)[C@@H](NC=O)C(=O)N1CCN2C(=O)c3cc(-c4ccc(Cl)cc4)ccc3NC(=O)C2C1` (stereo partly drawn) [Compound A55, N-{(R)-1-[7-(4-Chlorophenyl)-5,11-dioxo-3,4,5,10,11,11a-hexahydro-1H-2,4a,10-triaza-dibenzo[a,d]cycloheptene-2-carbonyl]-2,2-dimethylpropyl}formamide], the remaining activity at 10 µM was 71%. In the case of `CC(C)(C)[C@H](O)C(=O)N1CCN2C(=O)c3cc(-c4ccc(Cl)cc4)ccc3NC(=O)[C@H]2C1` [Compound A56, (R)-7-(4-Chlorophenyl)-2-((S)-2-hydroxy-3,3-di-methyl-1-oxobutyl)-1,3,4,11a-tetrahydro-2H,10H-2,4a,10-triazadibenzo[a,d]cycloheptene-5,11-dione], the IC50 was in the range of 100 to 1000 nM. On to `CC(C)(C(=O)N1CCN2C(=O)c3cc(-c4ccc(Cl)cc4F)ccc3NC(=O)C2C1)c1ccccc1` (stereo not shown) [Compound A58, 7-(4-Chloro-2-fluorophenyl)-2-(2-methyl-2-phenyl-propionyl)-1,3,4,11a-tetrahydro-2H,10H-2,4a,10-triazadibenzo[a,d]cycloheptene-5,11-dione], for which the remaining activity at 10 µM is -27% and the IC50 is more than 1000 nM. For `CC(C)[C@H](N)C(=O)N1CCN2C(=O)c3cc(-c4ccc(Cl)cc4F)ccc3NC(=O)C2C1` (stereo partly drawn) [Compound A59, 2-((S)-2-Amino-3-methylbutyryl)-7-(4-chloro-2-fluorophenyl)-1,3,4,11a-tetrahydro-2H,10H-2,4a,10-triazadibenzo[a,d]cycloheptene-5,11-dione], the remaining activity at 10 µM was -9% and the IC50 is more than 1000 nM. As for `CC(C)(C)[C@H](O)C(=O)N1CCN2C(=O)c3cc(-c4ccc(Cl)cc4F)ccc3NC(=O)C2C1` (stereo partly drawn) [Compound A60, 7-(4-Chloro-2-fluorophenyl)-2-((S)-2-hydroxy-3,3-dimethylbutyryl)-1,3,4,11a-tetrahydro-2H,10H-2,4a,10-triazadibenzo[a,d]cycloheptene-5,11-dione], the remaining activity at 10 µM is -27% and the IC50 was in the range of 100 to 1000 nM. In the case of `CC(C)(C)[C@H](N)C(=O)N1CCN2C(=O)c3cc(-c4ccc(Cl)cc4F)ccc3NC(=O)C2C1` (stereo partly drawn) [Compound A61, 2-((S)-2-Amino-3,3-dimethylbutyryl)-7-(4-chloro-2-fluorophenyl)-1,3,4,11a-tetrahydro-2H,10H-2,4a,10-triazadibenzo[a,d]cycloheptene-5,11-dione], the remaining activity at 10 µM is -11% and the IC50 was more than 1000 nM.

Regarding `CC(C)[C@H](N)C(=O)N1CCN2C(=O)c3cc(-c4ccc(Cl)cc4F)ccc3NC(=O)[C@@H]2C1` [Compound A62, (S)-2-((S)-2-Amino-3-methylbutyryl)-7-(4-chloro-2-fluorophenyl)-1,3,4,11a-tetrahydro-2H,10H-2,4a,10-triazadibenzo[a,d]cycloheptene-5,11-dione], the remaining activity at 10 µM is 27% and the IC50 was more than 1000 nM. For `CC(C)[C@H](N)C(=O)N1CCN2C(=O)c3cc(-c4ccc(Cl)cc4F)ccc3NC(=O)[C@H]2C1` [Compound A63, (R)-2-((S)-2-Amino-3-methylbutyryl)-7-(4-chloro-2-fluorophenyl)-1,3,4,11a-tetrahydro-2H,10H-2,4a,10-triazadibenzo[a,d]cycloheptene-5,11-dione], the remaining activity at 10 µM worked out at 67% and the IC50 was more than 1000 nM. `CC(C)(C)[C@H](O)C(=O)N1CCN2C(=O)c3cc(-c4ccc(Cl)cc4F)ccc3NC(=O)[C@@H]2C1` [Compound A64, (S)-7-(4-Chloro-2-fluorophenyl)-2-((S)-2-hydroxy-3,3-dimethylbutyryl)-1,3,4,11a-tetrahydro-2H,10H-2,4a,10-triazadibenzo[a,d]cycloheptene-5,11-dione]: the remaining activity at 10 µM stood at 31% and the IC50 is more than 1000 nM. Take `CC(C)(C)[C@H](N)C(=O)N1CCN2C(=O)c3cc(-c4ccc(Cl)cc4F)ccc3NC(=O)[C@H]2C1` [Compound A65, (R)-2-((S)-2-Amino-3,3-dimethylbutyryl)-7-(4-chloro-2-fluorophenyl)-1,3,4,11a-tetrahydro-2H,10H-2,4a,10-triazadibenzo[a,d]cycloheptene-5,11-dione]: the remaining activity at 10 µM turned out to be 48.5% and the IC50 is more than 1000 nM. For `CC(C)(C)[C@H](N)C(=O)N1CCN2C(=O)c3cc(-c4ccc(Cl)cc4F)ccc3NC(=O)[C@@H]2C1` [Compound A66, (S)-2-((S)-2-Amino-3,3-dimethylbutyryl)-7-(4-chloro-2-fluorophenyl)-1,3,4,11a-tetrahydro-2H,10H-2,4a,10-triazadibenzo[a,d]cycloheptene-5,11-dione], the remaining activity at 10 µM turned out to be 9.5% and the IC50 was in the range of 100 to 1000 nM. Taken in the same sequence, the figures for `Cn1cncc1C(=O)N1CCN2C(=O)c3cc(-c4ccc(Cl)cc4F)ccc3NC(=O)C2C1` (stereo not shown) [Compound A67, 7-(4-Chloro-2-fluorophenyl)-2-(3-methyl-3H-imidazole-4-carbonyl)-1,3,4,11a-tetrahydro-2H,10H-2,4a,10-triazadibenzo[a,d]cycloheptene-5,11-dione] were 19% and more than 1000 nM. Turning to `CC1(C)SCN[C@@H]1C(=O)N1CCN2C(=O)c3cc(-c4ccc(Cl)cc4F)ccc3NC(=O)C2C1` (stereo partly drawn) [Compound A68, 7-(4-Chloro-2-fluorophenyl)-2-((R)-5,5-dimethyl-thiazolidine-4-carbonyl)-1,3,4,11a-tetrahydro-2H,10H-2,4a,10-triazadibenzo[a,d]cycloheptene-5,11-dione], the remaining activity at 10 µM is -18% and the IC50 was 100 to 1000 nM. Turning to `O=C1Nc2ccc(-c3ccc(Cl)cc3F)cc2C(=O)N2CCN(C(=O)[C@H]3NCC[C@@H]3O)CC12` (stereo partly drawn) [Compound A69, 7-(4-Chloro-2-fluorophenyl)-2-((2S,3S)-3-hydroxy-pyrrolidine-2-carbonyl)-1,3,4,11a-tetrahydro-2H,10H-2,4a,10-triazadibenzo[a,d]cycloheptene-5,11-dione], the remaining activity at 10 µM stood at 58%. With `O=C1Nc2ccc(-c3ccc(Cl)cc3F)cc2C(=O)N2CCN(C(=O)[C@@H]3C[C@@H](O)CN3)CC12` (stereo partly drawn) [Compound A70, 7-(4-Chloro-2-fluorophenyl)-2-((2S,4R)-4-hydroxy-pyrrolidine-2-carbonyl)-1,3,4,11a-tetrahydro-2H,10H-2,4a,10-triazadibenzo[a,d]cycloheptene-5,11-dione], the remaining activity at 10 µM came to 28% and the IC50 was more than 1000 nM. Take `O=C1Nc2ccc(-c3ccc(Cl)cc3)cc2C(=O)N2CCN(C(=O)C3CSC(c4ccncc4)N3)CC12` (stereo not shown) [Compound A71, 7-(4-Chlorophenyl)-2-(2-pyridin-4-ylthiazolidine-4-carbonyl)-1,3,4,11a-tetrahydro-2H,10H-2,4a,10-triazadibenzo[a,d]cycloheptene-5,11-dione]: the remaining activity at 10 µM is 7% and the IC50 was more than 1000 nM. With `O=C1Nc2ccc(-c3ccc(Cl)cc3)cc2C(=O)N2CCN(C(=O)c3c(C(F)(F)F)nc4ccccn34)CC12` (stereo not shown) [Compound A72, 7-(4-Chlorophenyl)-2-(2-trifluoromethylimidazo[1,2-a]pyridine-3-carbonyl)-1,3,4,11a-tetrahydro-2H,10H-2,4a,10-triazadibenzo[a,d]cycloheptene-5,11-dione], the remaining activity at 10 µM is 70% and the IC50 was more than 1000 nM. With `Cc1nc(C)c(C(=O)N2CCN3C(=O)c4cc(-c5ccc(Cl)cc5)ccc4NC(=O)C3C2)s1` (stereo not shown) [Compound A73, 7-(4-Chlorophenyl)-2-(2,4-dimethylthiazole-5-carbonyl)-1,3,4,11a-tetrahydro-2H,10H-2,4a,10-triazadibenzo[a,d]cycloheptene-5,11-dione], the remaining activity at 10 µM is 78%. As to `CC(C)[C@H](O)C(=O)N1CCN2C(=O)c3cc(-c4ccc(Cl)cc4)ccc3NC(=O)C2C1` (stereo partly drawn) [Compound A74, 7-(4-Chlorophenyl)-2-((S)-2-hydroxy-3-methyl-butyryl)-1,3,4,11a-tetrahydro-2H,10H-2,4a,10-triaza-dibenzo[a,d]cycloheptene-5,11-dione], the remaining activity at 10 µM is -2% and the concentration for half-maximal inhibition (IC50) was more than 1000 nM.
